Tests used:
[1] = tested on: primary tumor cell line derived from model HBCx-17 (suspension and adherent cells); test: IC50 values of commonly used chemotherapeutic drugs on suspension versus adherent subpopulations of a primary tumor cell line; type: cell-based, human; conditions: HBCx-17 derived primary tumor cell line; n=3; suspension vs adherent subpopulation
[2] = tested on: epithelial breast cell line MCF10A; test: EMT induction in epithelial breast cell line by TGFβ1; type: cell-based, human
Method: The expression of SSEA4 was evaluated upon EMT induction. To induce a mesenchymal transition, the epithelial breast cell line MCF10A was treated with TGFβ1 at concentrations of 10 and 20 ng/ml. […] F-actin was stained by Phalloidin to visualize the cytoskeleton architecture. […] The fraction of SSEA4 positive cells was increased upon EMT induction (FIG. 8E) verifying that expression of SSEA4 indicates a more mesenchymal phenotype.
The results of the mRNA and the miRNA analysis strongly indicate that the expression of SSEA4 correlates with a more mesenchymal phenotype. […] To induce a mesenchymal transition, the epithelial breast cell line MCF10A was treated with TGFβ1 at concentrations of 10 and 20 ng/ml. […] Previously known key EMT markers like EpCAM, E-cadherin, Vimentin, and Fibronectin were regulated as expected, proving the efficiency of EMT induction using our method (FIG. 8 and data not shown). […] Strikingly, the fraction of SSEA4 positive cells was increased upon EMT induction verifying the correlation between SSEA4 expression and a more mesenchymal phenotype (FIG. 8).

| IC50 values of suspension cells (higher SSEA4 expression) compared to adherent cells [1] | Molecule | other results |
| --- | --- | --- |
| decreased IC50 values | CCc1c2c(nc3ccc(OC(=O)N4CCC(N5CCCCC5)CC4)cc13)-c1cc3c(c(=O)n1C2)COC(=O)[C@]3(O)CC [Irinotecan] |  |
| decreased IC50 values | CC[C@@]1(O)C(=O)OCc2c1cc1n(c2=O)Cc2cc3c(CN(C)C)c(O)ccc3nc2-1 [Topotecan] |  |
| higher IC50 values | O=c1[nH]cc(F)c(=O)[nH]1 [5-Fluorouracil] |  |
| higher IC50 values | COc1cccc2c1C(=O)c1c(O)c3c(c(O)c1C2=O)C[C@@](O)(C(=O)CO)C[C@@H]3O[C@H]1C[C@H](N)[C@H](O)[C@H](C)O1 [doxorubicin] |  |
| no difference | COc1cc([C@@H]2c3cc4c(cc3[C@@H](O[C@@H]3O[C@@H]5CO[C@@H](C)O[C@H]5[C@H](O)[C@H]3O)[C@H]3COC(=O)[C@H]23)OCO4)cc(OC)c1O [Etoposide] |  |
| higher IC50 values | CC(=O)O[C@@]12CO[C@@H]1C[C@H](O)[C@@]1(C)C(=O)[C@H](O)C3=C(C)[C@@H](OC(=O)[C@H](O)[C@@H](NC(=O)OC(C)(C)C)c4ccccc4)C[C@@](O)([C@@H](OC(=O)c4ccccc4)[C@H]21)C3(C)C [Docetaxel] |  |
|  | TGFβ1: TGFβ1 used to induce a mesenchymal transition (EMT) in MCF10A cells | cell morphology upon treatment ([2]; TGFβ1 10 and 20 ng/ml): almost all cells changed their morphology from a compacted colony type to an elongated fibroblastic shape; epithelial marker E-cadherin expression upon treatment ([2]; TGFβ1 10 and 20 ng/ml): downregulated; epithelial marker EpCAM expression upon treatment ([2]; TGFβ1 10 and 20 ng/ml): downregulated; fraction of SSEA4 positive cells upon EMT induction ([2]; TGFβ1 10 and 20 ng/ml): increased; mesenchymal marker Fibronectin expression upon treatment ([2]; TGFβ1 10 and 20 ng/ml): upregulated; invasive potential of treated cells ([2]; TGFβ1, data not shown): strongly increased |

Reference: patent US20150316556A1, “SSEA4 AND ST3GAL2 AS CHEMOTHERAPEUTIC DRUG RESPONSE BIOMARKERS” (Miltenyi Biotech GmbH, priority 2014, published 2015)
